According to US5763443A, “MDR resistance treatment and novel pharmaceutically active riminophenazines” (priority 1994, dated 1998):
≈ marks a conversion by molar mass, not a printed value. Like-named read-outs stand apart in the source and are kept apart here.

Key:
[1] = tested on: multi-drug resistant (MDR) lung carcinoma cell line H69/LX4; assay: in vitro; settings: for MDR reversal properties: with doxorubicin 12,5 ng/ml or vinblastine 25 ng/ml, FIGS. 4 to 7; for INCREASED SENSITIVITY H69/Lx4: Table VIII, values equal IC50 NONE / IC50 with VB 25 ng/ml of Table VII, 10080 min
Description: (§1) The riminophenazines of the above formula (I), contain an imino group. […] The potency of compounds of the above general formula, as inhibitors of multi-drug resistance, was assessed by sensitization of a P-glycoprotein positive cell line to drugs associated with this form of resistance. A human small cell lung cancer cell line H 69/P as well as a multi-drug resistance (MDR) sub-line H69/LX4 were used. These cell lines were obtained from the Medical Research Council Clinical Oncology and Radiotherapeutics Unit, Hills Road, Cambridge, England. The H69/LX4 line was selected in vitro by progressive exposure to increasing concentrations of doxorubicin in order to increase P-glycoprotein expression.
(§2) The cell lines used were human small cell lung cancer cell line HP69/P and a multi-drug resistant (MDR) sub-line H69/LX4, both of which were supplied by the MRC Clinical Oncology and Radiotherapeutics Unit, Hills Road, Cambridge, England. The maintenance of the cell lines and drug response assays was done as described by Twentyman et al in British Journal of Cancer Volume 65 pages 335-340. The H69/LX4 line was originally described by Twentyman et al in British Journal of Cancer Volume 53, pages 529-637 (1986).
(§3) The data in parenthesis represents fold sensitivity compared with the chemotherapeutic agent without the MDR inhibitor.
The results obtained, are illustrated graphically in FIGS. 4 to 7 of the accompanying drawings.
(§4) The general procedure set forth above was followed, i.e. 7 days incubation in the4 presence of doxorubicin at 12,5 ng/ml or vinblastine at 25 or 3 ng/ml.
(§5) The effects were examined over a seven (7) day exposure to different concentrations of B4119 and B4125 on the sensitivity of a doxorubicin resistant leukaemia cell line (K562/MMB) and a lung carcinoma cell line (H69/LX4) to doxorubicin (dox) and vinblastine (VB) using the MTT assay.

[2] = tested on: MDR leukaemia cell line K562/MMB; assay: cells; settings: for MDR activity / sensitivity against cell line K562/MMP: compared with known reference compound B4100
Description: A third cell line (562/MMB) used was a MDR leukemia cell line selected in vitro by progressive exposure to increasing concentrations of vinblastine in order to increase P-glycoprotein expression. This cell line was developed in the Department of Immunology, University of Pretoria from K562 (ATCC CCL 243) supplied by Highveld Biological (Pty) Ltd, Sandton.
as §4, §5

[3] = bio-availability (no method given)
[4] = tested on: gram positive microorganisms (Mycobacterium, Enterococcus, Streptococcus, methicillin resistant Staphylococcus); assay: anti-bacterial activity
H69/LX4 cells = assay: [14C]-vinblastine accumulation in MDR cell line; format: cell-based, human; settings: 1 hour pretreatment, 30 minutes [14C]-vinblastine
Description: The effect of riminophenazines on the accumulation of [^14 C]-vinblastine was investigated. For these experiments, both of the above cell lines (H69/LX4 and H69/P) were prepared as described by Coley et al (Biochem. Pharmacal 38, 4467-4475 (1989)). After a 1 hour pretreatment with the MDR reversal agents, cells (1×10^6 /ml) were exposed to […] [^14 C]-vinblastine (1 μCi specific activity) for 30 minutes.

[5] = tested on: human small cell lung cancer cell line H69/P; assay: MTT assay, 7 day exposure, sensitivity of parent cell line H69/P to chemotherapeutic agents; format: cell-based
Description: as §1, §2, §3

[6] = Homo sapiens, 168 h, read-out: IC 50 H69/Lx4 NONE
[7] = Homo sapiens, read-out: IC 50 H69/Lx4 DOX 12 ng/ml
[8] = Homo sapiens, read-out: IC 50 H69/Lx4 VB 25 ng/ml
[9] = Table VIII, values equal IC50 NONE / IC50 with VB 3 ng/ml of Table VII, 10080 min
[10] = Homo sapiens, read-out: IC50 H69/LX4 +VB (25 ng/ml)
[11] = Homo sapiens, read-out: IC50 H69/LX4 +dox (12 ng/ml)
[12] = Homo sapiens, read-out: IC50 H69/LX4 none
[13] = Homo sapiens, K562, 168 h, read-out: IC 50 K562/MMB NONE
[14] = Homo sapiens, K562, read-out: IC50 K562/MMB +VB (3 ng/ml), Table VI, with vinblastine 3 ng/ml
[15] = Homo sapiens, K562, read-out: IC50 K562/MMB +dox (12 ng/ml), Table VI, with doxorubicin 12 ng/ml
[16] = Homo sapiens, K562, read-out: IC 50 K562/MMB DOX 12 ng/ml, Table VII, with doxorubicin 12 ng/ml
[17] = Homo sapiens, K562, read-out: IC 50 K562/MMB VB 3 ng/ml, Table VII, with vinblastine 3 ng/ml
[18] = Homo sapiens, K562, read-out: IC50 K562/MMB none
[19] = H69/LX4, CsA 5 μg/ml, clofazimine 1 μg/ml or B669 0.5 μg/ml
[20] = H69/P, CsA 5 μg/ml, clofazimine 1 μg/ml or B669 0.5 μg/ml

Row | Compound | IC50 [1, 6] [µg/mL] | IC50 [1, 7] [µg/mL] | IC50 [1, 8] [µg/mL] | INCREASED SENSITIVITY H69/Lx4 [1] | INCREASED SENSITIVITY K 562/MMB [2, 9] | anti-bacterial activity [4] | IC50 [2, 16] [µg/mL] | IC50 [2, 17] [µg/mL] | MDR activity / sensitivity against cell line K562/MMP [2] | other results
1 | CC(C)c1ccc(Nc2cc3nc4ccccc4n(-c4ccc(C(C)C)cc4)c-3cc2=NC2CC(C)(C)NC(C)(C)C2)cc1 [Compound B4158, N,5-bis(4-isopropylphenyl)-3,5-dihydro-3-[(2',2',6',6'-tetramethyl-4-piperidyl)-imino]-2-phenazinamine] | 0.408 (≈ 0.696 µM) | 0.343 (≈ 0.585 µM) | 0.124 (≈ 0.212 µM) | 3.29 | 4.69 |  |  |  |  | MDR activity against the cell line H69/LX4 [1]: Reasonably good activity; MDR reversal properties ([1]; H69/LX4): Very good MDR reversal properties; bio-availability [3]: good bio-availability
2 | CC1(C)CC(N=c2cc3n(-c4ccc(F)c(Cl)c4)c4ccccc4nc-3cc2Nc2ccc(F)c(Cl)c2)CC(C)(C)N1 [Compound B4119, N,5-bis(3-chloro-4-fluorophenyl)-3,5-dihydro-3-[(2',2',6',6'-tetramethyl-4-piperidyl)-imino]-2-phenazinamine] | 0.62 (≈ 1.02 µM) | 0.6 (≈ 0.989 µM) | 0.109 (≈ 0.18 µM) | 5.69 | 1.46 | Particularly active | 0.147 (≈ 0.242 µM) | 0.189 (≈ 0.312 µM) |  | IC50 [1, 10]: 0.109 µg/mL (≈ 0.18 µM); IC50 [1, 11]: 0.6 µg/mL (≈ 0.989 µM); IC50 [1, 12]: 0.62 µg/mL (≈ 1.02 µM); IC50 [2, 13]: 0.276 µg/mL (≈ 0.455 µM); IC50 [2, 14]: 0.189 µg/mL (≈ 0.312 µM); IC50 [2, 15]: 0.147 µg/mL (≈ 0.242 µM); IC50 [2, 18]: 0.276 µg/mL (≈ 0.455 µM)
3 | CC1(C)CC(N=c2cc3n(-c4ccc(C(F)(F)F)cc4)c4ccccc4nc-3cc2Nc2ccc(C(F)(F)F)cc2)CC(C)(C)N1 [Compound B4103, N,5-bis(4-trifluoromethylphenyl)-3,5-dihydro-3[(2',2',6',6'-tetramethyl-4-piperidyl)imino]-2-phenazinamine] | 0.755 (≈ 1.18 µM) | 0.552 (≈ 0.866 µM) | 0.145 (≈ 0.227 µM) | 5.21 | 0.69 |  |  |  |  | MDR reversal properties ([1]; H69/LX4): Very good MDR reversal properties; bio-availability [3]: good bio-availability
4 | CC1(C)CC(N=c2cc3n(-c4cc(Cl)cc(Cl)c4)c4ccccc4nc-3cc2Nc2cc(Cl)cc(Cl)c2)CC(C)(C)N1 [Compound B4121, N,5-bis(3,5-dichiorophenyl)-3,5-dihydro-3-[(2',2',6',6'-tetramethyl-4-pipendyl)-imino]-2-phenazinamine] | 1.23 (≈ 1.92 µM) | 0.524 (≈ 0.819 µM) | 0.162 (≈ 0.253 µM) | 7.57 | 97.83 | Particularly active |  | 0.023 (≈ 0.036 µM) | increased substantially and unexpectedly | 
5 | CC1(C)CC(N=c2cc3n(-c4ccc(Cl)cc4)c4ccc(Cl)cc4nc-3cc2Nc2ccc(Cl)cc2)CC(C)(C)N1 [Compound B4090] | 1.5 (≈ 2.48 µM) | 1.01 (≈ 1.66 µM) | 0.266 (≈ 0.44 µM) | 5.64 | 7.30 |  |  | 0.027 (≈ 0.0446 µM) | exceptionally good activity | 
6 | CC(C)N=c1cc2n(-c3ccc(Cl)cc3)c3ccccc3nc-2cc1Nc1ccc(Cl)cc1 [Compound B663, N,5-bis-(4-chlorophenyl)-3,5-dihydro-3-[(1-methylethyl)imino]-2-phenazinamine, reference compound] | 2.5 (≈ 5.28 µM) | 1.31 (≈ 2.78 µM) | 0.372 (≈ 0.786 µM) | 6.72 |  |  |  | 0.038 (≈ 0.0803 µM) | good activity | fold sensitivity to Etoposide compared with agent without MDR inhibitor ([1]; 168 h, 1 ug/mL): 5.0 fold; fold sensitivity to Cyclophosphamide compared with agent without MDR inhibitor [1, 19]: 1.0 fold; fold sensitivity to Daunorubicin compared with agent without MDR inhibitor [1, 19]: 4 fold; fold sensitivity to Doxorubicin compared with agent without MDR inhibitor [1, 19]: 11 fold; fold sensitivity to Methotrexate compared with agent without MDR inhibitor [1, 19]: 0.7 fold; fold sensitivity to Mitomycin C compared with agent without MDR inhibitor [1, 19]: 1.7 fold; fold sensitivity to Vinblastine compared with agent without MDR inhibitor [1, 19]: ~13 fold; fold sensitivity to Vinblastine compared with agent without MDR inhibitor ([1]; H69/LX4, CsA 5 μg/ml, clofazimine 1 μg/ml or B669 0.5 μg/ml, listed as Clofazimine (B663)): 13.7 fold; vinblastine accumulation in the MDR cell line (H69/LX4 cells): significant enhancement; fold sensitivity to Etoposide compared with agent without MDR inhibitor ([5]; 168 h, 1 ug/mL): 0.6 fold; fold sensitivity to Cyclophosphamide compared with agent without MDR inhibitor [5, 20]: 0.9 fold; fold sensitivity to Daunorubicin compared with agent without MDR inhibitor [5, 20]: 1.0 fold; fold sensitivity to Doxorubicin compared with agent without MDR inhibitor [5, 20]: 0.8 fold; fold sensitivity to Methotrexate compared with agent without MDR inhibitor [5, 20]: 0.9 fold; fold sensitivity to Mitomycin C compared with agent without MDR inhibitor [5, 20]: 0.7 fold; fold sensitivity to Vinblastine compared with agent without MDR inhibitor [5, 20]: 1.3 fold; INCREASED S[…] 562/MMB [2, 9]: 5.92
7 | CC1(C)CC(N=c2cc3n(-c4ccccc4Cl)c4ccccc4nc-3cc2Nc2ccccc2Cl)CC(C)(C)N1 [Compound B4125, N,5-bis(2-chlorophenyl)-3,5-dihydro-3-[(2',2',6',6'-tetramethyl-4-piperidyl)-imino]-2-phenazinamine] | 0.785 (≈ 1.38 µM) | 0.521 (≈ 0.913 µM) | 0.399 (≈ 0.699 µM) | 1.97 | 11.96 | Particularly active | 0.188 (≈ 0.329 µM) | 0.026 (≈ 0.0456 µM) | exceptionally good activity | IC50 [1, 10]: 0.399 µg/mL (≈ 0.699 µM); IC50 [1, 11]: 0.521 µg/mL (≈ 0.913 µM); IC50 [1, 12]: 0.785 µg/mL (≈ 1.38 µM); IC50 [2, 13]: 0.311 µg/mL (≈ 0.545 µM); IC50 [2, 14]: 0.026 µg/mL (≈ 0.0456 µM); IC50 [2, 15]: 0.188 µg/mL (≈ 0.329 µM); IC50 [2, 18]: 0.311 µg/mL (≈ 0.545 µM)
8 | CC1(C)CC(N=c2cc3n(-c4ccc(C(F)(F)F)cc4C(F)(F)F)c4ccccc4nc-3cc2Nc2ccc(C(F)(F)F)cc2C(F)(F)F)CC(C)(C)N1 [Compound B4178, N,5-bis(2,4-di-trifluoromethyl-phenyl)-3,5-dihydro-3-[(2',2',6',6'-tetramethylpiperidyl)-imino]phenazinamine] | 0.785 (≈ 1.01 µM) | 0.521 (≈ 0.673 µM) | 0.399 (≈ 0.516 µM) | 1.97 | 6.03 |  | 0.919 (≈ 1.19 µM) | 0.199 (≈ 0.257 µM) |  | IC50 ([2]; Homo sapiens, K562, 168 h, read-out: IC 50 K562/MMB NONE, Table VII, riminophenazine alone, 7 day): 1.02 µg/mL (≈ 1.32 µM)
9 | COc1cccc2c1C(=O)c1c(O)c3c(c(O)c1C2=O)C[C@@](O)(C(=O)CO)C[C@@H]3O[C@H]1C[C@H](N)[C@H](O)[C@H](C)O1 [Doxorubicin, reference compound] |  |  |  |  |  |  |  |  |  | cytotoxicity at 0.0125 µg/mL ([1]; Homo sapiens, 168 h, read-out: cytotoxic activity of chemotherapeutic agent at the concentration used with the riminophenazine): < 10%; cytotoxicity at 0.0125 µg/mL ([2]; Homo sapiens, K562, 168 h, read-out: cytotoxic activity of chemotherapeutic agent at the concentration used with the riminophenazine): < 10%
10 | CC1(C)CC(N=c2cc3n(-c4cccc(C(F)(F)F)c4)c4ccccc4nc-3cc2Nc2cccc(C(F)(F)F)c2)CC(C)(C)N1 [Compound B4126, N,5-bis(3-trifluoromethyl-phenyl)-3,5-dihydro-3-[(2',2',6',6'-tetramethyl-4-piperidyl)-imino]-2-phenazinamine] | 0.699 (≈ 1.1 µM) | 0.455 (≈ 0.714 µM) | 0.26 (≈ 0.408 µM) | 2.69 | 4.45 | Particularly active |  |  |  | 
